This is an account of results in ChEMBL document CHEMBL1201862, “PubChem BioAssay data set” (2004).

Assay [1] has as its target T1, Insulin-degrading enzyme (Homo sapiens, UniProt P14735).
T1 sequence (P14735 whole entry): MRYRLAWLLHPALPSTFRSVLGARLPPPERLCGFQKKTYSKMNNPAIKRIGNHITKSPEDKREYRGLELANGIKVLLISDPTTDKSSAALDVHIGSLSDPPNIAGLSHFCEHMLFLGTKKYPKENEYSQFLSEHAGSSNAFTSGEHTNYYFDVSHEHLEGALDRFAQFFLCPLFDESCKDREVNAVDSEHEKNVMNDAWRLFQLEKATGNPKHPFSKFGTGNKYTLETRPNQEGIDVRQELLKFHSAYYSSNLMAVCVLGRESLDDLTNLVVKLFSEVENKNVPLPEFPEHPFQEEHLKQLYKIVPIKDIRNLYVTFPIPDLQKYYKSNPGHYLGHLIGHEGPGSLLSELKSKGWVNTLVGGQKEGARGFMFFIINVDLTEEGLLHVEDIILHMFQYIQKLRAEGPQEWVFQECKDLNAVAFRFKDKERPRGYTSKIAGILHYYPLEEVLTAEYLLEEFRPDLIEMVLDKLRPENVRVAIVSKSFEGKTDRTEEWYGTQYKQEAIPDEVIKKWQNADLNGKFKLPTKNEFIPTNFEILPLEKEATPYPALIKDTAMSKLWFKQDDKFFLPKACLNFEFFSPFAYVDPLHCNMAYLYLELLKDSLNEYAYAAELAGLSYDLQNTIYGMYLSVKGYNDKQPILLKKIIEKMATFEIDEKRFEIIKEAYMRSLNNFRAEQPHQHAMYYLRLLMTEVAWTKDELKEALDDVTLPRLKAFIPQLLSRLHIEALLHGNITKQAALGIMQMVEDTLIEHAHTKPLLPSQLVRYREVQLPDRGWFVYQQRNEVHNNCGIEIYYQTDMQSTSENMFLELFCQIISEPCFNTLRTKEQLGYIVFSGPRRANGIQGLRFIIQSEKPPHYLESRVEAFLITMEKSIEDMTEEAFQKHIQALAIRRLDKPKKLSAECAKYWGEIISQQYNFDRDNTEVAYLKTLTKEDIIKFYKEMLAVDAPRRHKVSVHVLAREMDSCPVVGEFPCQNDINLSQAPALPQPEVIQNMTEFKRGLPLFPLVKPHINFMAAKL
The assay can be described thus: recombinant IDE activation, cell-free – biochemical, fluorescence polarization, counter-screen for IDE activator project, dose response (AID 588681). In general terms: Fluorescence polarisation rises when a labelled molecule tumbles more slowly, as on binding a larger partner.

The target of assay [2] is T1, Insulin-degrading enzyme. The assay can be described thus: cellular IDE activation of Abeta substrate cleavage – fluorescence polarization, HEK cells, dose response (AID 588439). The assay is classed as functional, cell-based.
For assay [3], the system named is HEK293. Briefly: membrane integrity loss in HEK cells – cell-based, fluorescence, cytotoxicity control for IDE activator project, dose response (AID 588440).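 Further: cytotoxicity by LDH release measuring loss of membrane integrity.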 The assay is classed as functional. The note with it: Homo sapiens.
In assay [4] the test system is HEK293. Briefly: optical interference in Abeta FP readout, dose response, artefact control for IDE activator project, biochemical, fluorescence polarization (AID 588442). The class given is functional, cell-based. The note with it: Homo sapiens.
The target in assay [5] is T2, Hepatocyte nuclear factor 4-alpha (Homo sapiens, UniProt P41235).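 Further: biochemical luminescence-based dose-response counterscreen measuring inhibition of HNF4 dimerization, run alongside a screen for blockers of ABHD5–perilipin-5 interaction; split luciferase complementation of HNF4 fusion proteins in cell lysate measuring dimerization.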
T2 sequence (P41235 whole entry): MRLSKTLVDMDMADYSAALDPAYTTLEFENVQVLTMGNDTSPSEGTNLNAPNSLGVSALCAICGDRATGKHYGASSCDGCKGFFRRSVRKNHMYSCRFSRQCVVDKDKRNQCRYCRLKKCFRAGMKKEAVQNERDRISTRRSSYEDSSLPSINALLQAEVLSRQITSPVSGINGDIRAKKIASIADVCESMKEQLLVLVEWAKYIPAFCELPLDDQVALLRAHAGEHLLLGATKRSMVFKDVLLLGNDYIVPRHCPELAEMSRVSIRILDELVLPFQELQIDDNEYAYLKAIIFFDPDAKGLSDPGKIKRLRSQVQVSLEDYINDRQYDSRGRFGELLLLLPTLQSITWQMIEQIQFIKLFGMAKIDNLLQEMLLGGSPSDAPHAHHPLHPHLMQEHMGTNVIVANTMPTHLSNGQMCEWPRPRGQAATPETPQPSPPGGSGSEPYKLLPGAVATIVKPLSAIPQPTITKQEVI
The class given is functional, cell-based.

A short description of assay [6]: Luminescence Cell-Based Dose Retest to Confirm Inhibitors of Cancer Stem Cells. [Related pubchem assays (depositor defined):AID2717, AID2721]. The class given is functional. The note with it: Homo sapiens.
In the next assay the target is T3, Caspase-3 (Homo sapiens, UniProt P42574).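 Further: Dose-response selectivity test against caspase-3 for candidate inhibitors of sentrin-specific proteases (SENPs).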
T3 sequence (P42574 whole entry): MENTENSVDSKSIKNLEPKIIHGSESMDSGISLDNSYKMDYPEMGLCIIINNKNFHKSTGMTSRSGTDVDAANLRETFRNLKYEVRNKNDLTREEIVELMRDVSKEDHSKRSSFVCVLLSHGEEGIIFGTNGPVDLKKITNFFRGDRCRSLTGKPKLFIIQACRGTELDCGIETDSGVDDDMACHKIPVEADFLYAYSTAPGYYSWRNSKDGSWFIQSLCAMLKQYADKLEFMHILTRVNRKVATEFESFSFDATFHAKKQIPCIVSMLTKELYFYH
The assay is classed as functional.

The target in assay [7] is T4, Sentrin-specific protease 7 (Homo sapiens, UniProt Q9BQF6).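 Further: Luminescence-based dose-response confirmation of ultra-high-throughput screening hits, measuring inhibition of SENP7.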
T4 sequence (Q9BQF6 whole entry): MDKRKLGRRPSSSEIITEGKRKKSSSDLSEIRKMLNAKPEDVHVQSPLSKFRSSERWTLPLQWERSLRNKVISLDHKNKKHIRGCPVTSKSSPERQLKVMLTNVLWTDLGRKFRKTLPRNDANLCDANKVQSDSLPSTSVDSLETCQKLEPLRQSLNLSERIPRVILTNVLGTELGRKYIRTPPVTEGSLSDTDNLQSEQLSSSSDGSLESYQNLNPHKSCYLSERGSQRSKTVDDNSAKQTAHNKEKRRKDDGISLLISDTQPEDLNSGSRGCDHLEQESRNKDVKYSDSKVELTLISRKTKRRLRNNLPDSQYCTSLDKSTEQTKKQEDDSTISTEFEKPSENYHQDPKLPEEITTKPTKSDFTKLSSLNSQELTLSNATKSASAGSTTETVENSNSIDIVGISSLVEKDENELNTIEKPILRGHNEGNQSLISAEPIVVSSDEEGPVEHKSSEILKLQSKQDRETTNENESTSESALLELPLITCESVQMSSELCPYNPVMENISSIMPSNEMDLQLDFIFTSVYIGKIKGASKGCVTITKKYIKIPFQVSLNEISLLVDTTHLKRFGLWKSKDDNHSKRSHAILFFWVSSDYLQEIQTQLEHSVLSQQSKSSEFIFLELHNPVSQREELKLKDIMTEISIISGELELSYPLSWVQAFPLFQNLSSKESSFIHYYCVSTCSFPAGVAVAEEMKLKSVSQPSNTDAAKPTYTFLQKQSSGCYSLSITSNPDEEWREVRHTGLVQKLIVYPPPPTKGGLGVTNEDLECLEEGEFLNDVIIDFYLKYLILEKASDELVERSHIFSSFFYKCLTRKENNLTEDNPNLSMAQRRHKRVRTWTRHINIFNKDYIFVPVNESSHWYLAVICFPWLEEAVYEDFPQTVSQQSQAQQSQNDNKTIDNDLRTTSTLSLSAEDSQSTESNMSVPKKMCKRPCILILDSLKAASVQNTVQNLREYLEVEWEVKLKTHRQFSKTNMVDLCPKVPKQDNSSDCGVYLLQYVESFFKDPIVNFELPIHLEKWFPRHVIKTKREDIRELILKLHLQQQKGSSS
The class given is functional.

Assay [8] deals with T5, Sentrin-specific protease 6 (Homo sapiens, UniProt Q9GZR1).
T5 sequence (Q9GZR1 whole entry): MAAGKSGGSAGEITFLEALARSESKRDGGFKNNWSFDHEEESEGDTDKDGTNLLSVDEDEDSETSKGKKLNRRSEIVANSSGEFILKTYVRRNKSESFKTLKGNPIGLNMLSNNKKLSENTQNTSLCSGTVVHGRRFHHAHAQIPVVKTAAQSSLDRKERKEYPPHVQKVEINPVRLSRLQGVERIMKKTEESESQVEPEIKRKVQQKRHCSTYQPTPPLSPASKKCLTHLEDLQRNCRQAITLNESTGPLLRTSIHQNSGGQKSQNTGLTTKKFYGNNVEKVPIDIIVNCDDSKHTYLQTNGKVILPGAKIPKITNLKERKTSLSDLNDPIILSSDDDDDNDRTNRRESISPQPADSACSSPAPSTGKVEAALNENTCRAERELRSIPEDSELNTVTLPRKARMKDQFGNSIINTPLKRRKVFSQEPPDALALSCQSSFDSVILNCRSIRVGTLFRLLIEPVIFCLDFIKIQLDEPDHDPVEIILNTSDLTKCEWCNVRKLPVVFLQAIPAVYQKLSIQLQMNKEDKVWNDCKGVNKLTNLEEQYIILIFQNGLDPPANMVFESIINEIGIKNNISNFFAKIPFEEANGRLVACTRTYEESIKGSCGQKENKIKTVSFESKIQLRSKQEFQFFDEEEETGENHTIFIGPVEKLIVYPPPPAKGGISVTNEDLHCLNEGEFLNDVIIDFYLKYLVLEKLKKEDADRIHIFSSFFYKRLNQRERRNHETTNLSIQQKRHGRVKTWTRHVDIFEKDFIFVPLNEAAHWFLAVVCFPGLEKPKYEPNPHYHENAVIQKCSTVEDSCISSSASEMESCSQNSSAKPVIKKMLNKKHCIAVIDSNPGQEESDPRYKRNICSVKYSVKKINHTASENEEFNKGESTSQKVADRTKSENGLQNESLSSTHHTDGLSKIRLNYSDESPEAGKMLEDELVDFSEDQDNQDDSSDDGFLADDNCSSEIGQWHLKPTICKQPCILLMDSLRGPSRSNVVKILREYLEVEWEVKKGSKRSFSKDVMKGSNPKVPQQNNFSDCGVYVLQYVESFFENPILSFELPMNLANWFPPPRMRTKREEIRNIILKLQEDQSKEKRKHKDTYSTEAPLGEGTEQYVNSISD
The class given is functional.

The target of assay [9] is T6, Sentrin-specific protease 8 (Homo sapiens, UniProt Q96LD8).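 Further: luminescence read-out of SENP8 inhibition, dose-response confirmation following an ultra-high-throughput screen.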
T6 sequence (Q96LD8 whole entry): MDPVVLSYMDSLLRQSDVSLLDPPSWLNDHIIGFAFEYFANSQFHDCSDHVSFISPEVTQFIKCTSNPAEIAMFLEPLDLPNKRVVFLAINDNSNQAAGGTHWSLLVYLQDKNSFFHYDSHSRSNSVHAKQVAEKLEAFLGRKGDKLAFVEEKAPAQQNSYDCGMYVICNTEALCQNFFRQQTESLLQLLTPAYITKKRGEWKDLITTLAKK
The class given is functional.

In another assay the test system is Vero. The assay can be described thus: viability of Vero cells under compound – cytotoxicity control for flavivirus capping enzyme inhibitors (AID 588742). The class given is functional. The note with it: Chlorocebus sabaeus.
A further assay concerns the target Genome polyprotein (dengue virus type 2, UniProt P29990). The assay can be described thus: flavivirus cap methylation enzyme inhibition – biochemical, confirmation dose response, primary screen (AID 588689). The assay is classed as functional.

Active and inactive are the calls of the source.
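Wherever AC50 is given: cells exposed to compound for roughly 70 hours or longer before luminescence read.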

Chain of Genome polyprotein (P29990 2492-3391 limits assumed): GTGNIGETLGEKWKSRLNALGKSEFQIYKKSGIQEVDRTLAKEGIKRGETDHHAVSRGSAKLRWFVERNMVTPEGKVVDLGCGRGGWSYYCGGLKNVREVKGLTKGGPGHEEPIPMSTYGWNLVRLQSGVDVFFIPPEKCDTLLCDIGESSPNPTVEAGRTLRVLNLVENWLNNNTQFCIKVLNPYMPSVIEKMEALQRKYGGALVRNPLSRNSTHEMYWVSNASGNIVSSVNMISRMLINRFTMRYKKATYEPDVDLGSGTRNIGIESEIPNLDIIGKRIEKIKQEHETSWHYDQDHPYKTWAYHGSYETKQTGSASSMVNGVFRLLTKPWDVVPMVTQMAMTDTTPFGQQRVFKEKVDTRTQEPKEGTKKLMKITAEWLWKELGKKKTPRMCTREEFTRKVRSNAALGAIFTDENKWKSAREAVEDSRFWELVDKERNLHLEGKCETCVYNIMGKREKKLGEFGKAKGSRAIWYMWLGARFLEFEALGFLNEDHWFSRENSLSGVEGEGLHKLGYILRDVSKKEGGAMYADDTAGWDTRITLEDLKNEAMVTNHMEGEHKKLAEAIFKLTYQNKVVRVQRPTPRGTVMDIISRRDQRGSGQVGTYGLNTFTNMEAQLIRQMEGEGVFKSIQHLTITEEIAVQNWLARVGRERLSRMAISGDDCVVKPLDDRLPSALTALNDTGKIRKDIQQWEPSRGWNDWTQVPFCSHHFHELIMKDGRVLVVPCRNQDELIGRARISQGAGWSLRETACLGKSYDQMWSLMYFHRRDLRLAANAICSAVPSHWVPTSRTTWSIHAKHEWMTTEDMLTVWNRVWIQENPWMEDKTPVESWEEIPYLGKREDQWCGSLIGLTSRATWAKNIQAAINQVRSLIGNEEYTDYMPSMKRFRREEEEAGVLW

On to `OC(CNC1CCCCC1)C(F)(F)F` (configuration not stated), for which the EC50 on Insulin-degrading enzyme [1] was > 54.7 µM (inactive); on Insulin-degrading enzyme [2], > 54.7 µM (inactive); in the assay on HEK293 [4], > 55.9 µM (inactive). Further, the IC50 in the assay with HEK293 [3] is > 89.1 µM (inactive).
`O=C(NCc1ccccc1)C(c1ccccc1)n1c(=O)c(-c2ccco2)nc2ccccc21` (configuration not stated): the IC50 in assay [5] is 2.93 µM (active).
As for `CCN(c1ccccc1)S(=O)(=O)c1ccc(N2CCN(c3ccc(OC)cc3)CC2)nc1`, the figures for the EC50 at Insulin-degrading enzyme [1], at Insulin-degrading enzyme [2] and in the assay on HEK293 [4] were > 54.7 µM (inactive), > 54.7 µM (inactive) and > 55.9 µM (inactive), respectively. In the assay with HEK293 [3], the IC50 was > 89.2 µM (inactive).
As to `COc1ccc(NC(=O)c2cc3ccccc3cc2O)cc1`, the AC50 in assay [6] is 6.04 µM (active). Moreover, the IC50 at Caspase-3 was 20.7 µM (active); in [7], 5.51 µM (active); in assay [8], 72.6 µM (active); in [9], > 100 µM (inactive); at Genome polyprotein, > 100 µM (active); in assay [5], 10 µM (inactive). The CC50 in the assay on Vero is 34.6 µM (active).

For orientation: EC50 means the concentration that produces a half-maximal response. The IC50 is the concentration that gives 50% inhibition. As usually defined, the AC50 is the concentration at which the activity in the assay is half-maximal. Broadly, the CC50 is the concentration at which the toxic effect on the cells reaches its halfway point.
